Common to all, as to assay type: in vivo, BALB/c mice
The subject of assay [1] is Ad-TSHR-immunized mice. Briefly: thyroid size at end of experiment in Graves' disease mouse model. The note with it: 1 mg/kg IV 4-weekly. The protocol: Representative images are shown. In FIG. 4B, the effects of peptide therapy on thyroid sizes were investigated at the end of the experiment. The measurements were carried out in Ad-TSHR-immunized mice treated by either 4-weekly injections with vehicle (0.9% NaCl, “Graves' no therapy”, n=25 mice), or administrations of 1 mg/kg body weight of peptide of the invention 836 (12 mice), or of peptide 829 (13 mice), or of TSHR-Fc (18 mice), or of control peptide 835 (13 mice). In addition, age-matched immunologically naïve unimmunized mice (“healthy”, 19 animals) were investigated. The mean thyroid sizes in mm^3 are shown with SEM. Differences between groups were tested by AVOVA followed by post hoc LSD testing. ** indicates statistical significance (p<0.001) compared to the TSHR-immunized group treated with only NaCl (“Graves' no therapy”).
(§1) The study protocol used three 3-weekly immunizations (“initiation”) and followed by a “maintenance” phase with further regular 4-weekly boosts until the 9th immunisation, as described before (22). Mice were randomly assigned to therapeutic groups. Therapy (either 1 mg/kg body weight peptides or 0.9% NaCl vehicle control) was given 1 week after the 4th immunization by IV injection into a tail vein, and then continued at 4-weekly intervals, as described before for the treatment of anti-β1AR (16). The fusion protein TSHR-Fc was given IV at identical times at doses of 1 mg/kg, but had to be applied together with the histamine receptor blocker clemastin (Tavegil®) at a dose of 0.02 mg per mouse (25 g body weight) to avoid clinical symptoms of allergic reaction, which had been observed in initial pilot studies of TSHR-Fc administration in mice.
After euthanasia, dissection of the thyroid glands was performed under a stereomicroscope, as described before (22). Briefly, cross cuts at the level above the larynx and below the seventh cartilage ring were made and the glands with the tracheae and oesophagi were removed from the necks. Tissue blocks were kept in 4% neutral para-formaldehyde (PFA), washed in PBS 3 times and embedded in optimum cutting temperature (OCT) formulation (Tissue-Tek® O.C.T.™ compound, VWR Chemicals, Leuven, Belgium). Consecutive 5 μm-thick cross sections were cut at a fixed distance of 500 μm using a Leica microtome CM 1850 Cryostat (temperature at −19° C.) and mounted on Thermo Polysine slides (Thermo Scientific, Cat J2800AMNZ). […] Thyroid volumes (mm^3) were calculated from the sum of the areas of each section over the whole cutting region. Myocardial volumes (mm^3) were calculated in a similar way as described for thyroid glands from the sum of the areas of each section over whole cutting region (5 to 6 slides, depending on respective size of the hearts). […]

Assay [2] concerns Ad-TSHR-immunized mice. Briefly: serum thyroxin (T4) levels in Graves' disease mouse model. The note with it: 1 mg/kg IV 4-weekly, after start of therapy (week 11). The procedure:
In FIG. 5 the effects of peptide therapy on serum thyroxin levels were evaluated. The measurements were carried out in Ad-TSHR-immunized mice treated by either 4-weekly injections with vehicle (0.9% NaCl, “Graves' no therapy”, n=25 mice), or administrations of 1 mg/kg body weight of peptide of the invention 836 (12 mice), or of peptide 829 (13 mice), or TSHR-Fc (18 mice), or of control peptide 835 (13 mice). In addition, age-matched immunologically naïve unimmunized mice (“healthy”, 19 animals) were investigated. Data are represented as means±SEM. Significance over time was tested by analysis of variance (ANOVA) of groups at given time points, and controlled by ANOVA for repeated measurements within one group, followed by LSD post-hoc testing. *p<0.05, and **p<0.005, compared to the TSHR-immunized group treated with only NaCl (“Graves' no therapy”).
as §1
Total thyroxine (T4) was measured by immunoassay kit (#T4044T-100, Calbiotech Inc, Austin, Calif.) in duplicate determination.

Assay [3] concerns Ad-TSHR-immunized mice. The assay is described as follows: ECG heart rates in Graves' disease mouse model. The note with it: 1 mg/kg IV 4-weekly, ECG under anaesthesia. The procedure: (§2) In FIG. 7 the effect of the peptide therapy on heart rates at various times during the experiment (A), and on heart weights (B) and cardiac ventricular volumes (C) at the end of the experiment were evaluated in all animals. The measurements were carried out in Ad-TSHR-immunized mice treated by either 4-weekly injections with vehicle (0.9% NaCl, “Graves' no therapy”, n=25 mice), or administrations of 1 mg/kg body weight of peptide of the invention 836 (12 mice), or of peptide 829 (13 mice), or TSHR-Fc (18 mice). In addition, age-matched immunologically naïve unimmunized mice (“healthy”, 19 animals) were investigated. Data are represented as mean±SEM. Significance over time was tested by analysis of variance (ANOVA) of groups at given time points, and controlled by ANOVA for repeated measurements within one group, followed by LSD post-hoc testing. *p<0.05, and **p<0.005, compared to the TSHR-immunized group treated with only NaCl (“Graves' no therapy”).
When mice were subjected to anaesthesia for immunisation, their heart function was monitored with an electrocardiogram (ECG amplifier module, Harvard Apparatus, Hugo Sachs electronics) and recorded with a special software, which allows to determine the heart rate from the ECG reading (Haemodyn, Hugo Sachs electronics). ECG was also performed in anaesthesia before animals were euthanized for histological exam at the end of the study.

Assay [4] has as its system Ad-TSHR-immunized mice. Briefly: heart weights upon necropsy. The note with it: 1 mg/kg IV 4-weekly, necropsy at end of experiment. The protocol:
as §2
Due to unavailability of some fine histological sections, analysis of this parameter in mice treated with other peptides could unfortunately not be completed.

Peptide text beside a SMILES is read from it.

On to `CC[C@H](C)[C@@H]1NC(=O)[C@H](C(C)C)NC(=O)[C@H]([C@@H](C)O)NC(=O)[C@H](CC(C)C)NC(=O)[C@H](Cc2ccc(O)cc2)NC(=O)[C@H](CCCCN)NC(=O)[C@H](CC(N)=O)NC(=O)[C@H](CCCCN)NC(=O)[C@H](CC(N)=O)NC(=O)[C@H](CC(C)C)NC(=O)[C@H](Cc2ccc(O)cc2)NC(=O)[C@H](C(C)C)NC(=O)[C@H](C)NC(=O)[C@H](CC(=O)O)NC(=O)[C@H](CC(C)C)NC(=O)[C@H](CCCCN)NC(=O)[C@H]([C@@H](C)O)NC(=O)CNC(=O)[C@H](CC(N)=O)NC(=O)[C@H](Cc2ccccc2)NC(=O)[C@H](C)NC(=O)[C@H](Cc2ccc(O)cc2)NC(=O)CNC(=O)[C@H](CC(=O)O)NC1=O` [peptide 836] (cyclo(GYAFNGTKLDAVYLNKNKYLTVID)), for which, in the assay with Ad-TSHR-immunized mice [1], the thyroid size result was “decreased thyroid sizes”. Besides, the “serum thyroxin (T4) levels” value in the assay with Ad-TSHR-immunized mice [2] was “progressively decreasing T4 levels, which consecutively reverted to normal values”. In addition, in the assay on Ad-TSHR-immunized mice [3], the heart rate entry is “no further increase, and significantly decreased resting heart rates at later time points”. Further, in the assay with Ad-TSHR-immunized mice [4], the heart weights result is on record as “significantly reduced heart weights”.

Regarding SPPCECHQEEDFRVTCKDIQRIPS [peptide 829], the thyroid size entry with Ad-TSHR-immunized mice [1] is reported as “a trend which did not reach statistical significance”. In the assay with Ad-TSHR-immunized mice [2], the “serum thyroxin (T4) levels” value is given as “a trend which did not reach statistical significance”. The heart rate entry with Ad-TSHR-immunized mice [3] was “a trend which did not reach statistical significance”. Besides, the heart weights entry in the assay on Ad-TSHR-immunized mice [4] is listed as “trends towards reduced heart weights which did not reach statistical significance”.

As to “TSHR-Fc: fusion protein: first 289 amino acids of human TSH receptor (A-subunit), GGR linker and Fc portion of human IgG2”, the thyroid size result with Ad-TSHR-immunized mice [1] was “decreased thyroid sizes”. Moreover, the “serum thyroxin (T4) levels” value in the assay with Ad-TSHR-immunized mice [2] is given as “progressively decreasing T4 levels, which consecutively reverted to normal values”. Moreover, the heart rate entry in the assay with Ad-TSHR-immunized mice [3] was “no further increase, and significantly decreased resting heart rates at later time points”. The heart weights entry in the assay on Ad-TSHR-immunized mice [4] is listed as “trends towards reduced heart weights which did not reach statistical significance”.

Values taken from patent US11459375B2, “Cyclic peptides for the treatment of Graves' disease” (advanceCOR GmbH, priority 2017, dated 2022).
